# Structures can show the parent of a compound that is named as a salt.
# Key:
# [1] = Solubility measurement in preparation solution (water solubility); type: physicochemical; details: hydrochloride; for dissolution amount: preparation solution (D-sorbitol, lactic acid, pH about 3.5), shaken at 22° C. for 30 minutes; for water solubility: pH3.5
# Method: About 0.5 g of b- or c-type crystals were weighed out, suspended in a preparation solution, and shaken at 22° C. for 30 minutes (130 r/min). The mixture was filtered by a membrane filter (0.45 μm). To 1 ml of the filtrate, the preparation solution was added up to 200 mL. 10 μl was aliquoted and analyzed by liquid chromatography. The dissolution amount was obtained on the basis of a calibration curve previously prepared.
# Note that the preparation solution used herein was prepared by dissolving 45 g of D-sorbitol in an appropriate amount of distilled water for injection, adding 900 mg of lactic acid, adjusting pH of the solution at about 3.5, and adding distilled water for injection up to 1000 mL.
# [2] = Change of dissolution state over time (30 mg/mL in preparation solution); type: physicochemical; details: shaken for several minutes
dissolution amount [1],water solubility [1],temperature needed to dissolve [2],SMILES
≥ 100 mg/mL,–,–,"CCc1c2c(nc3ccc(OC(=O)N4CCC(N5CCCCC5)CC4)cc13)-c1cc3c(c(=O)n1C2)COC(=O)[C@]3(O)CC [No. 3, irinotecan hydrochloride]"
11.4 mg/mL,11.4 mg/mL,about 70 °C,"CCc1c2c(nc3ccc(OC(=O)N4CCC(N5CCCCC5)CC4)cc13)-c1cc3c(c(=O)n1C2)COC(=O)[C@]3(O)CC [b-type crystals, irinotecan hydrochloride]"
–,≥ 100 mg/mL,–,"CCc1c2c(nc3ccc(OC(=O)N4CCC(N5CCCCC5)CC4)cc13)-c1cc3c(c(=O)n1C2)COC(=O)[C@]3(O)CC [c-type crystals, irinotecan hydrochloride]"
